# “Also recorded” adds a separate entry of the source. Ends that are not written are not given here.
# Legend:
# PC12 cells [1] = assay: Inhibition of GLP-1, exendin-4 and NGF induced neurite outgrowth in PC12 cells; assay type: cell-based, rat; settings: 48 h; PD98059 50 μM, LY294002 40 μM, H89 20 μM, or exendin (9-39) with exendin-4
# Method: NGF at 50 ng/ml and forskolin (PKA activator) (20 μM) were used as positive controls in these treatments.
# RIN 1048-36 cells = assay: Insulin secretion in vitro in RIN 1048-36 cells; assay type: cell-based, rat; settings: peptide 1×10−8 M, 5 mM glucose, 1 h; compared with GLP-1 and exendin-4
# Method: Thereafter, they were preincubated for 2 periods of 30 min each with glucose-free buffer (containing mM: 140 NaCl, 5 KCl, 1 NaPO4, 1 MgSO4, 2 CaCl, 20 HEPES buffer (pH 7.4), and 0.1% bovine serum albumin) in a 37° C. humidified incubator. […] After 1 h the medium was removed and stored at −80° C. prior to quantification of insulin levels by EIA (Crystal Chem, Chicago Ill.), and the cells were lysed with HCl (300 μl, 0.1 M, 20 min, RT) for measurement of total protein using the Bradford method (Bio-Rad, Richmond, Calif.) with bovine γ-globulin as a standard.
# Aβ1-40 [2] = assay: Aβ1-40 sandwich ELISA of PC12 conditioned media; assay type: cell-based, rat; settings: PC12 cells, relative to control cells
# PC12 cells [3] = assay: Neurite outgrowth in PC12 cells; assay type: cell-based, rat; settings: day 3
# Method: Three dishes for each treatment condition were prepared. Treatments began 24 hours after seeding, once cells were well attached.
# PC12 cells were grown on 60 mm dishes as above and cultured for four days. During this time neurite outgrowth was quantified daily. Five random fields of cells were evaluated per dish and the proportion of neurite-bearing cells was determined. Approximately 100 cells per field were scored for neurites equal to or greater in length than that of the cell body. A cell was only scored once, although it may have had more than one process per cell.
# synaptophysin = assay: Synaptophysin expression in PC12 cells (Western blot); assay type: cell-based, rat; settings: PC12 cell lysates
# Method: The synaptophysin monoclonal antibody (Oncogene Research Products, San Diego Calif.), which stains neurosecretory vesicles of PC12 cells, was used. The membranes were blocked with 20 mM Tris, 500 mM NaCl pH 7.4, 1% (w/v) casein (BioRad, San Diego Calif.) at 37° C. for 1 hour. Primary antibody was diluted in block and incubated with the proteins overnight at 4° C. The membrane was vigorously washed with 20 mM Tris pH 7.4, 150 mM NaCl and 0.05% Tween-20 (TBST), three times for 15 minutes at room temperature. The peroxidase-linked secondary antibody in block was incubated with the membrane for 2 hours at room temperature. Peroxidase-linked anti-mouse IgM (Chemicon, Tenecula, Calif.) was used as the secondary antibody against synaptophysin. Excess antibody was washed off with three vigorous washes in TBST prior to incubation in ECL Plus (Amersham, Philadelphia, Pa.) for 5 minutes. The membrane was subsequently exposed to photographic film.
# Aβ1-40 [4] = assay: Aβ1-40 in whole brain homogenates after i.c.v. infusion in control mice; assay type: in vivo, mouse; settings: 2 μg NGF i.c.v., 48 h, p<0.01
# Method: Lean db+/db+ control male mice (n=24) were anaesthetized with 50 mg/kg pentobarbitone and placed in a stereotaxic surgical frame with mouse adaptor (David Kopf Instruments, Tujunga, Calif.) using temporal bone cup holders. […] After 48 h all animals were sacrificed by cervical dislocation, the brains removed and rapidly frozen in liquid nitrogen. Brains were pulverized and stored at −80° C. prior to assaying for Aβ levels.
# Equivalent volumes of conditioned media and whole brain homogenate were assayed for Aβ1-40 using a sandwich ELISA (Suzuki et. al., 1994). The monoclonal antibody BAN50 (raised against Aβ1-16) was used as the capture antibody for all species of Aβ (Aβ1-40 and Aβ1-42), and the monoclonal antibody BA27 was used to specifically detect Aβ1-40 levels. Levels of Aβ1-40 were expressed in pM concentrations for conditioned media samples and finol/g for the mouse brain homogenates, as deduced from the appropriate standard curve run in parallel with the assay.
# PC12 cells [5] = assay: Bromodeoxyuridine incorporation in PC12 cells; settings: day 1; GLP-1 33 μg/ml, NGF 50 ng/ml
# Method: Immunocytochemistry with an anti-BrdU antibody after labeling was used to identify cells that were actively replicating DNA at the time of labeling. […] 10 μM BrdU was added to the culture medium for 6 hours prior to fixing in 4% paraformaldehyde, to label cellular DNA. The remainder of the method was followed according to the proliferation kit (Roche, Indianapolis, Ind.). […] BrdU incorporation was quantitated on days 1, 2 and 3 of treatment. Three dishes for each treatment condition were counted and expressed as the percentage of labeled cells relative to the total number of cells.
# [6] = tested on: β-amyloid precursor protein (βAPP); assay: Western immunoblot of βAPP (cell lysates) and sAPP (conditioned media) in PC12 cells; settings: day 3, relative to untreated
# [7] = tested on: fasted, diabetic Zucker rats; assay: Duration of in vivo insulinotropic action after intraperitoneal peptide; set-up: species or system rat; settings: 0.4 nmol/kg i.p.
# Method: The time-dependent duration of insulinotropic action was evaluated by quantifying plasma insulin and glucose levels in Zucker rats following intraperitoneal (i.p.) peptide administration. Specifically, after overnight fasting, diabetic male rats, approximately 400 g weight, were anesthetized with 50 mg/kg pentobarbital and a catheter was tied into their right femoral artery for blood collection. […] Blood, taken prior to peptide administration, at 30 and 60 min, and at 2, 4, 6 and 24 h, was drawn into heparinized tubes containing EDTA and aprotinin for insulin determination, and a separate sample was taken to measure glucose. Plasma was separated, removed and immediately frozen to −70° C. Thereafter insulin levels were quantified by using a rat insulin ELISA kit (Crystal Chem Inc., Chicago, Ill.) and plasma glucose was quantified by the glucose oxidase method.
# [8] = tested on: Zucker fatty (fa/fa) and Wistar rats; assay: Blood glucose and insulin after subcutaneous injection; assay type: in vivo, rat; settings: 24 nmol/kg s.c.
# Method: Six-month old male Zucker fa/fa rats (Harlan, Indianapolis, Ind.) and six-month old Wistar rats were used in this study. They were allowed ad libitum access to chow and water and were on a 12 h light, 12 h dark cycle (lights on 0700 h). The bedding for the Zucker rats was a paper based product, “Carefresh” (Absorption Co., Belingham, Wash.). The Zucker rats were fasted on wire, in the absence of bedding, overnight before the experiment. Wistar rats were fasted on their normal bedding. General anaesthesia was induced by an intraperitoneal injection of pentobarbital (50 mg/kg).
molecule,measurement,setting,value
exendin (9-39),"effect on GLP-1, exendin-4 or NGF induced neurite outgrowth",PC12 cells [1],failed to initiate neurite extension
peptide 30: peptide 1 with neutral serine replaced by basic lysine in position 18 (SEQ ID NO:27) (HGEGTFTSDVSKYLEGQAAKEFIAWLVKGR),induction of insulin secretion,RIN 1048-36 cells,loss of activity
peptide 8: GLP-1 with A to G substitution at position 8 and V to L at position 16 (SEQ ID NO:5) (HGEGTFTSDLSSYLEGQAAKEFIAWLVKGR),induction of insulin secretion,RIN 1048-36 cells,retained the ability to induce insulin secretion; also recorded: substantially greater effect on insulin secretion than either GLP-1 or exendin-4
COc1cccc(-c2cc(=O)c3ccccc3o2)c1N [PD98059],"effect on GLP-1, exendin-4 or NGF induced neurite outgrowth",PC12 cells [1],reduced GLP-1 and exendin-4 induced neurite outgrowth
nerve growth factor [NGF],Aβ1-40 levels in conditioned media,Aβ1-40 [2],significant increases in Aβ1-40 levels
same,increase in neurite projections from controls,PC12 cells [3]; NGF 10 ng/ml,550%
same,increase in neurite projections from controls,PC12 cells [3]; NGF 30 ng/ml,720%
same,maximal decrease in synaptophysin expression relative to control cells,synaptophysin,approximately 70%
same,synaptophysin expression,synaptophysin; relative to untreated,dramatically reduced the expression of the synaptophysin protein
same,reduction of Aβ1-40 levels compared to vehicle,Aβ1-40 [4],40%
same,increased incorporation of BrdU relative to untreated,PC12 cells [5],9%
same,intracellular levels of βAPP (cell lysates),[6],dramatic increases in intracellular levels of βAPP
peptide 15: truncation of exendin-4 including residues up to and including residue 43 (SEQ ID NO:12),induction of insulin secretion,RIN 1048-36 cells,inducing effect that exceeded that of exendin-4 or GLP-1
O=S(=O)(NCCNC/C=C/c1ccc(Br)cc1)c1cccc2cnccc12 [H89],"effect on GLP-1, exendin-4 or NGF induced neurite outgrowth",PC12 cells [1],some inhibitory effects on GLP-1 and NGF-induced neurite outgrowth
"peptide 9: GLP-1 with A/G, V/L, S/K, Y/Q, L/M substitutions at position 8, 16, 18, 19, 20 (SEQ ID NO: 6) (HGEGTFTSDLSKQMEGQAAKEFIAWLVKGR)",induction of insulin secretion,RIN 1048-36 cells,retained the ability to induce insulin secretion; also recorded: restores activity
CC[C@H](C)[C@H](NC(=O)[C@H](Cc1ccccc1)NC(=O)[C@H](CCC(=O)O)NC(=O)[C@H](CCCCN)NC(=O)[C@H](C)NC(=O)[C@H](C)NC(=O)[C@H](CCC(N)=O)NC(=O)CNC(=O)[C@H](CCC(=O)O)NC(=O)[C@H](CC(C)C)NC(=O)[C@H](Cc1ccc(O)cc1)NC(=O)[C@H](CO)NC(=O)[C@H](CO)NC(=O)[C@@H](NC(=O)[C@H](CC(=O)O)NC(=O)[C@H](CO)NC(=O)[C@@H](NC(=O)[C@H](Cc1ccccc1)NC(=O)[C@@H](NC(=O)CNC(=O)[C@H](CCC(=O)O)NC(=O)CNC(=O)[C@@H](N)Cc1c[nH]cn1)[C@@H](C)O)[C@@H](C)O)C(C)C)C(=O)N[C@@H](C)C(=O)N[C@@H](Cc1c[nH]c2ccccc12)C(=O)N[C@@H](CC(C)C)C(=O)N[C@H](C(=O)N[C@@H](CCCCN)C(=O)NCC(=O)N[C@@H](CCCNC(=N)N)C(N)=O)C(C)C [GLP-1 Gly^8],induction of insulin secretion,RIN 1048-36 cells,induced insulin secretion slightly more than exendin-4
same,potency on plasma insulin versus equimolar standard,[7],more potent than equimolar GLP-1
same,hypoglycemia in Zucker rats,[8]; fasted Zucker fatty rats,drop in blood glucose into the hypoglycemic range
same,blood glucose,"[8]; fasted rats, monitored 8 h",rapidly lowered blood glucose
peptide 36: exendin-4 with arginine in position 36 and position 30 modified from glutamic acid to alanine (SEQ ID NO:33) (HGEGTFTSDLSKQMEEEAVREFIAWLKNGR; not fully specified),induction of insulin secretion,RIN 1048-36 cells,well tolerated

# Source: patent US10941187B2 (The United States of America, as represented by the …, priority 2001, dated 2021)
